Data: ChEMBL document CHEMBL3822409, “Synthesis and antitubercular activity of new 1,3,4-oxadiazoles bearing pyridyl and thiazolyl scaffolds” (Bioorg Med Chem Lett, 2016)
≈ marks a conversion by molar mass, not a printed value.

Key:
[1] = tested on: Mycobacterium tuberculosis variant bovis BCG; test: Antimycobacterial activity against dormant stage of Mycobacterium bovis BCG ATCC 35734 measured on day 12 by nitrate reductase assay; format: functional, organism-based; details: ATCC 35734, 288 h
[2] = tested on: Mycobacterium tuberculosis variant bovis BCG; test: Antimycobacterial activity against active stage of Mycobacterium bovis BCG ATCC 35734 measured on day 8 by nitrate reductase assay; format: functional, organism-based; details: ATCC 35734, 192 h

Structure (SMILES) | IC50 [1] | MIC [1] | IC50 [2] | MIC [2]
Cc1nc(-c2cccnc2)sc1-c1nnc(-c2ccccc2)o1 | > 30 µg/mL | > 30 µg/mL | > 30 µg/mL | > 30 µg/mL
Cc1nc(-c2cccnc2)sc1-c1nnc(-c2ccc(O)cc2)o1 | > 30 µg/mL | > 30 µg/mL | > 30 µg/mL | > 30 µg/mL
Cc1nc(-c2cccnc2)sc1-c1nnc(-c2ccc([N+](=O)[O-])cc2)o1 | 24.9 µg/mL (≈ 68.2 µM) | > 30 µg/mL | 22.5 µg/mL (≈ 61.6 µM) | > 30 µg/mL
Cc1nc(-c2cccnc2)sc1-c1nnc(-c2cccc(Cl)c2Cl)o1 | > 30 µg/mL | > 30 µg/mL | > 30 µg/mL | > 30 µg/mL
COc1ccccc1-c1nnc(-c2sc(-c3cccnc3)nc2C)o1 | 1.8 µg/mL (≈ 5.14 µM) | 3.95 µg/mL (≈ 11.3 µM) | 1.46 µg/mL (≈ 4.17 µM) | 2.65 µg/mL (≈ 7.56 µM)
Cc1ccc(-c2nnc(-c3sc(-c4cccnc4)nc3C)o2)cc1 | 15.2 µg/mL (≈ 45.5 µM) | > 30 µg/mL | 14.2 µg/mL (≈ 42.6 µM) | > 30 µg/mL
Cc1nc(-c2cccnc2)sc1-c1nnc(-c2ccncc2)o1 | 28 µg/mL (≈ 87 µM) | 42.2 µg/mL (≈ 131 µM) | 24.7 µg/mL (≈ 76.8 µM) | 40 µg/mL (≈ 125 µM)
Cc1ccccc1-c1nnc(-c2sc(-c3cccnc3)nc2C)o1 | 1.44 µg/mL (≈ 4.31 µM) | 4.91 µg/mL (≈ 14.7 µM) | 2.69 µg/mL (≈ 8.04 µM) | 5.84 µg/mL (≈ 17.5 µM)
Cc1nc(-c2cccnc2)sc1-c1nnc(-c2ccccc2Cl)o1 | 1.47 µg/mL (≈ 4.14 µM) | 4.77 µg/mL (≈ 13.4 µM) | 2.62 µg/mL (≈ 7.38 µM) | 5.16 µg/mL (≈ 14.5 µM)
Cc1cccc(-c2nnc(-c3sc(-c4cccnc4)nc3C)o2)c1 | > 30 µg/mL | > 30 µg/mL | > 30 µg/mL | > 30 µg/mL
Cc1nc(-c2cccnc2)sc1-c1nnc(-c2ccc(Br)cc2)o1 | > 30 µg/mL | > 30 µg/mL | > 30 µg/mL | > 30 µg/mL
Cc1nc(-c2cccnc2)sc1-c1nnc(Cc2ccccc2)o1 | 5.26 µg/mL (≈ 15.7 µM) | 10.4 µg/mL (≈ 31 µM) | 7.2 µg/mL (≈ 21.5 µM) | 11.3 µg/mL (≈ 33.8 µM)
Cc1nc(-c2cccnc2)sc1-c1nnc(-c2cccnc2)o1 | 56.3 µg/mL (≈ 175 µM) | 94.9 µg/mL (≈ 295 µM) | 24.5 µg/mL (≈ 76.2 µM) | 40.4 µg/mL (≈ 126 µM)
Cc1nc(-c2cccnc2)sc1-c1nnc(-c2ccccc2[N+](=O)[O-])o1 | 3.55 µg/mL (≈ 9.72 µM) | 5.89 µg/mL (≈ 16.1 µM) | 1.68 µg/mL (≈ 4.6 µM) | 2.56 µg/mL (≈ 7.01 µM)
Cc1nc(-c2cccnc2)sc1-c1nnc(-c2ccc(Cl)cc2)o1 | > 30 µg/mL | > 30 µg/mL | > 30 µg/mL | > 30 µg/mL
CO[C@H]1/C=C/O[C@@]2(C)Oc3c(C)c(O)c4c(O)c(c(/C=N/N5CCN(C)CC5)c(O)c4c3C2=O)NC(=O)/C(C)=C\C=C\[C@H](C)[C@H](O)[C@@H](C)[C@@H](O)[C@@H](C)[C@H](OC(C)=O)[C@@H]1C [RIFAMPIN] | 0.0027 µg/mL (≈ 0.00328 µM) | 0.05 µg/mL (≈ 0.0608 µM) | 0.003 µg/mL (≈ 0.00365 µM) | 0.08 µg/mL (≈ 0.0972 µM)
